# US20150080475A1, “Memantine Protects Inflammation-Related Degeneration of Dopamine Neurons Through Inhibition of Over-Activated Microglia and Release of Neurotrophic Factors From Astroglia” (priority 2009, published 2015)
# How the values were obtained:
# Type in all cases: cell-based
# [1] = tested on: TNF-α; experiment: TNF-α ELISA after LPS; details: 4 h after LPS treatment
# Protocol: The production of TNF-α was measured with a commercial ELISA kit from R&D Systems. The PGE2 release was measured with a commercial ELISA kit from Cayman Chemical Company.
# Neuron-glia cultures were pretreated for 30 min with MMT (3 μM) or vehicle before LPS stimulation. […] Production of superoxide (30 min after LPS) and iROS (2 h after LPS) was decreased by MMT treatment (FIGS. 6A and 6B). […] The production of PGE2 in cultures pretreated with 3 and 10 μM MMT decreased by 23% and 27% respectively (FIG. 6E).
# [2] = tested on: astrocyte, and micrglia; experiment: BrdU cytogenesis test in rat primary midbrain neuron-glia cultures; details: 10 μM MMT, 24 hours
# Protocol: Rat primary mesencephalic neuron-glia cultures seeded in a 24-well culture plate at density of 5×10^5 per well were treated with 10 μM MMT or its vehicle, and simultaneously with 1 μl Brdu seven days after seeding. 24 hours later, the cultures was fixed with 3.7% of PDF for GFAF, iba-1, and DAPI staining.
# In addition to the pre-treatment experiments, similar studies using post-treatment designs were conducted to determine the efficacy of MMT. In these experiments, neuron-glia cultures were either treated with MMT (10 μM) and LPS (2.5 ng/ml) at the same time, or MMT was added 30, 60, 120 or 180 min after the addition of LPS. One week later, DA uptake of the culture was assayed.
# [3] = Glutamate and aspartate concentrations in supernatants of primary neuron-glia cultures; details: vehicle, 10 μM MMT, LPS 5 ng/ml, MMT plus LPS
# Protocol: Primary neuron-glia cultures seeded in 24-well plates at a density of 5×10^5 cells/well for 7 days. Then, the cultures were treated with vehicle, 10 μM MMT, LPS 5 ng/ml, and MMT 10 μM and LPS 5 ng/ml, and supernatants derived from the primary neuron-glia cultures at indicated time points.
# To determine the possibility that NMDA receptors might play a role in our mixed neuron/glia cultures in MMT-elicited neuroprotection, this invention determine the concentrations of excitatory amino acid, glutamate and aspartate in the supernatant of cultures after LPS treatment. Several authors reported the release of excitatory amino acid release from microglia by higher concentration of LPS (100 ng/ml). However, the concentration of glutamate released was limited to 10-20 μM, which may not be in sufficient concentrations to produce significant neuronal death (Obrenovitch et al. Excitotoxicity in neurological disorders--the glutamate paradox. Int J Dev Neurosci. 2000; 18:281-7.). In mixed neuron/glia cultures of this invention, with lower concentration of LPS (5 ng/ml) which was toxic to DA neurons, this invention could not detect any increases in both glutamate and aspartate (FIG. 13).
# [4] = tested on: DA neurons; experiment: MPP+-induced reduction in DA uptake in neuron-enriched cultures; details: MMT 1, 3, or 10 μM pre-treatment
# Protocol: Mesencephalic neuron-glia cultures were seeded (5×10^5/well) in 24 well plates precoated with poly D-lysine. Thirty-six hours postseeding, 5-10 μM cytosine β-D-arabinofuranoside was added to the culture. After 2 days, the cytosine β-D-arabinofuranoside was removed and replaced with fresh media. Neuron-enriched cultures are 98% pure, as indicated by ICC staining with OX-42 and GFAP antibodies. Neuron-enriched cultures were treated 7 days post-seeding. For microglia add-back cultures, the microglia were plated on top of the neuron-enriched culture at 6 days postseeding, resulting in the addition of either 10% (500 μL of 1×10^5) or 20% (500 μL of 2×10^5) microglia. […]
# Cells were incubated in Krebs-Ringer buffer (16 mM NaH2PO4, 1.2 mM MgSO4, 1.3 mM EDTA, […], for 21 min at 37° C. with 1 μM [^3H] DA. Nonspecific uptake was blocked for DA with 10 μM mazindole. After incubation, cells were washed three times with 1 mL/well of ice-cold Krebs-Ringer buffer. Cells were then lysed with 0.5 mL/well of 1 N NaOH and mixed with 15 mL of scintillation fluid. Radioactivity was measured on a scintillation counter, where specific [^3H] DA uptake was calculated by subtracting the mazindole.
# To determine whether the neuroprotective effect of MMT was dependent on the presence of glial cells, the effects of MMT on the neuron-enriched cultures were determined. […]
compound,measurement,setting,value
"CC12CC3CC(C)(C1)CC(N)(C3)C2.Cl [MMT, 1-amino-3,5-dimethyladamantane hydrochloride]",release of TNF-α,[1],reduced
same,proliferation of astrocyte and microglia compared with control,[2],does not induce more proliferation
same,aspartate concentration in supernatant,[3],not obviously different
same,glutamate concentration in supernatant,[3],not obviously different
same,protection against MPP+-induced reduction in DA uptake,[4],failed to protect
